Laboratory results taken from PubChem BioAssay (NCI).
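Briefly, cells in 96-well plates were exposed to five compound concentrations for 48 h, and endpoints were estimated by linear interpolation. TGI: total growth inhibition.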 Where a SMILES comes first, the peptide text is derived from it. Residues, ends and D or L forms follow the SMILES beside them. *: point of attachment. Boc = CC(C)(C)OC(=O)*; OBn = c1ccc(CO*)cc1

Columns and labels:
Assay in all cases: NCI anticancer screen, dose series, 48 h
[1] = tested on: A498 renal
[2] = tested on: SK-MEL-5 melanoma
[3] = tested on: MDA-N
[4] = tested on: SF-295 CNS
[5] = tested on: IGROV1 ovarian
[6] = tested on: NCI-H226 lung
[7] = tested on: M14 melanoma
[8] = tested on: CCRF-CEM leukemia
[9] = tested on: SK-MEL-28 melanoma
[10] = tested on: LOX IMVI melanoma
[11] = tested on: CAKI-1 renal
[12] = tested on: UACC-62 melanoma
[13] = tested on: SN12C renal
[14] = tested on: HOP-92 NSCLC
[15] = tested on: NCI-H23 lung
[16] = tested on: OVCAR-5 ovarian
[17] = tested on: SNB-75 CNS
[18] = tested on: MOLT-4 leukemia
[19] = tested on: HT29 colon
[20] = tested on: SF-268 CNS

Work on Cc1c(N/C=C(\C#N)C(=O)c2ccc(Cl)cc2)c(=O)n(-c2ccccc2)n1C yielded a TGI [1] of over 100 µM, a TGI [2] of over 100 µM and a TGI [3] of over 100 µM. For the same compound, the TGI [4] was over 100 µM, the TGI [5] was over 100 µM and the TGI [6] was over 100 µM. For the same compound, the TGI [7] was over 100 µM, the TGI [8] was over 100 µM and the TGI [9] was over 100 µM. For the same compound, the TGI [10] was over 100 µM, the TGI [11] was over 100 µM and the TGI [12] was over 100 µM. The TGI [13] was over 100 µM, the TGI [14] was over 100 µM and the TGI [15] was over 100 µM. For the same compound, the TGI [16] was over 100 µM and the TGI [17] was over 100 µM.
In the case of N#Cc1nc(-c2ccccn2)oc1N, the TGI [1] is reported as over 100 µM, the TGI [2] is reported as over 100 µM and the TGI [18] is reported as over 100 µM. For the same compound, the TGI [3] was over 100 µM, the TGI [19] was over 100 µM and the TGI [4] was over 100 µM. It also gave a TGI [5] of over 100 µM, a TGI [6] of over 100 µM and a TGI [20] of over 100 µM. The TGI [8] was over 100 µM, the TGI [9] was over 100 µM and the TGI [10] was over 100 µM. It also gave a TGI [11] of over 100 µM, a TGI [12] of over 100 µM and a TGI [13] of over 100 µM. The TGI [14] was over 100 µM, the TGI [15] was over 100 µM and the TGI [16] was over 100 µM.
CCCCCCCCCCCCOc1ccc(/C=C/C2=[N+](CCCl)CCO2)cc1 was tested, and the TGI [1] was over 100 µM, the TGI [2] was over 100 µM and the TGI [18] was over 100 µM. The TGI [3] was over 100 µM, the TGI [19] was over 100 µM and the TGI [4] was over 100 µM. The TGI [5] was 77.6 µM, the TGI [6] was over 100 µM and the TGI [7] was over 100 µM. The TGI [8] was over 100 µM, the TGI [9] was over 100 µM and the TGI [10] was 39.9 µM. The TGI [11] was over 100 µM, the TGI [12] was over 100 µM and the TGI [13] was over 100 µM. The TGI [14] was 86.5 µM, the TGI [16] was over 100 µM and the TGI [17] was over 100 µM.
CC(C)(C)OC(=O)C1=C2C=C(O)C=CC2(C)N(Cc2ccccc2)C1=N (stereo unspecified) gave a TGI [1] of 26.2 µM, a TGI [2] of 15.9 µM and a TGI [18] of over 32.7 µM. It also gave a TGI [3] of 20.2 µM, a TGI [19] of 14 µM and a TGI [4] of 28.2 µM. For the same compound, the TGI [5] was 16.6 µM, the TGI [6] was 28.6 µM and the TGI [7] was 10.4 µM. It also gave a TGI [8] of over 38.2 µM, a TGI [9] of 24.8 µM and a TGI [10] of 8.44 µM. For the same compound, the TGI [11] was 4.19 µM, the TGI [12] was 29 µM and the TGI [13] was 25.5 µM. It also gave a TGI [14] of 5.91 µM, a TGI [15] of 31.2 µM and a TGI [16] of 33.1 µM. It also gave a TGI [17] of over 56.7 µM.
Work on Cc1ccc(/C=C2\CCCC(CN(C)C)C2=O)cc1 (stereo unspecified) yielded a TGI [1] of 27.4 µM, a TGI [2] of 12.5 µM and a TGI [18] of over 100 µM. It also gave a TGI [3] of 3.85 µM, a TGI [19] of 3.07 µM and a TGI [4] of 31.2 µM. The TGI [5] was 4.15 µM, the TGI [6] was 6.82 µM and the TGI [7] was 3.31 µM. For the same compound, the TGI [8] was over 100 µM, the TGI [9] was 3.9 µM and the TGI [10] was 3.38 µM. The TGI [11] was 2.88 µM, the TGI [12] was 5.09 µM and the TGI [13] was 3.91 µM. The TGI [14] was 3.75 µM, the TGI [15] was 4.97 µM and the TGI [16] was 29.5 µM. It also gave a TGI [17] of 20.3 µM.
In the case of COC(=O)[C@@H](Cc1ccccc1)N1O[C@]12CCCC[C@@H]2NC(=O)OC(C)(C)C (stereo partly specified), the TGI [1] is reported as over 100 µM, the TGI [2] is reported as 35.8 µM and the TGI [18] is reported as over 100 µM. It also gave a TGI [3] of 39.1 µM, a TGI [19] of 32.2 µM and a TGI [4] of over 100 µM. For the same compound, the TGI [5] was 27.8 µM, the TGI [6] was over 100 µM and the TGI [7] was 50.9 µM. For the same compound, the TGI [20] was 34.9 µM, the TGI [8] was 35.9 µM and the TGI [9] was 60.7 µM. The TGI [11] was 90.4 µM, the TGI [12] was 48.7 µM and the TGI [13] was over 100 µM. The TGI [14] was 55.5 µM, the TGI [15] was 51.8 µM and the TGI [16] was 71.7 µM. For the same compound, the TGI [17] was 77.3 µM.
O=C(Cc1nc2ncccc2[nH]c1=O)c1c[nH]c2ccccc12 was tested, and the TGI [1] was 31.7 µM, the TGI [2] was 73 µM and the TGI [18] was 94.8 µM. It also gave a TGI [3] of 45.4 µM, a TGI [19] of 60.9 µM and a TGI [4] of 31.9 µM. For the same compound, the TGI [5] was 39 µM, the TGI [7] was 43.1 µM and the TGI [20] was 30.5 µM. For the same compound, the TGI [8] was 40.3 µM, the TGI [9] was 32.8 µM and the TGI [10] was 44 µM. For the same compound, the TGI [11] was 31.9 µM, the TGI [12] was 31.2 µM and the TGI [13] was 35.9 µM. It also gave a TGI [14] of 38.4 µM, a TGI [15] of 54 µM and a TGI [16] of 59.2 µM.
COc1cc(Nc2nnc3n2S(=O)(=O)c2cc(C)c(Cl)cc2S3)cc(OC)c1 gave a TGI [1] of 85.8 µM, a TGI [2] of 68.7 µM and a TGI [18] of 60.9 µM. It also gave a TGI [3] of over 100 µM, a TGI [19] of over 100 µM and a TGI [4] of 68.7 µM. For the same compound, the TGI [5] was 6.26 µM, the TGI [6] was 55.1 µM and the TGI [7] was over 100 µM. For the same compound, the TGI [20] was 50.7 µM, the TGI [8] was over 100 µM and the TGI [9] was over 100 µM. It also gave a TGI [11] of 79 µM, a TGI [12] of 57.6 µM and a TGI [13] of over 100 µM. The TGI [14] was 27 µM, the TGI [15] was 43.7 µM and the TGI [16] was over 100 µM.
Compound COc1ccc(/C=C2\Sc3nnc(CNc4ccc(Cl)cc4)n3N=C2c2cc(F)c(Cl)cc2Cl)cc1OC has a TGI [1] of over 100 µM, a TGI [2] of over 100 µM and a TGI [18] of over 100 µM. The TGI [3] was over 100 µM, the TGI [19] was over 100 µM and the TGI [4] was over 100 µM. For the same compound, the TGI [5] was over 100 µM, the TGI [6] was over 100 µM and the TGI [7] was over 100 µM. It also gave a TGI [20] of over 100 µM, a TGI [8] of over 100 µM and a TGI [9] of over 100 µM. It also gave a TGI [10] of over 100 µM, a TGI [11] of 80.5 µM and a TGI [14] of over 100 µM. For the same compound, the TGI [15] was over 100 µM and the TGI [16] was over 100 µM.
CC(C)CC(NC(=O)C(Cc1ccccc1)NC(=O)C(Cc1c[nH]c2ccccc12)NC(=O)CNC(=O)C(N)Cc1ccc(O)cc1)C(=O)O (stereo unspecified) (H-YGWFL-OH; configuration not given here) was tested, and the TGI [1] was 96 µM, the TGI [2] was over 100 µM and the TGI [18] was over 100 µM. For the same compound, the TGI [3] was over 100 µM, the TGI [19] was over 100 µM and the TGI [4] was 88.6 µM. The TGI [5] was over 100 µM, the TGI [6] was over 100 µM and the TGI [7] was over 100 µM. It also gave a TGI [20] of over 100 µM, a TGI [8] of over 100 µM and a TGI [9] of over 100 µM. The TGI [11] was over 100 µM, the TGI [12] was over 100 µM and the TGI [13] was over 100 µM. The TGI [14] was 42.1 µM, the TGI [15] was over 100 µM and the TGI [16] was over 100 µM. For the same compound, the TGI [17] was 93.9 µM.
CC(C)CC(NC(=O)OC(C)(C)C)C(=O)N1CCCC1C(=O)OCc1ccccc1 (stereo not drawn) (Boc-Leu-Pro-OBn; configuration not given here) gave a TGI [1] of over 100 µM, a TGI [2] of over 100 µM and a TGI [3] of over 100 µM. It also gave a TGI [19] of over 100 µM, a TGI [4] of over 100 µM and a TGI [5] of over 100 µM. The TGI [6] was over 100 µM, the TGI [7] was over 100 µM and the TGI [20] was over 100 µM. The TGI [9] was over 100 µM, the TGI [10] was over 100 µM and the TGI [11] was over 100 µM. For the same compound, the TGI [12] was over 100 µM, the TGI [13] was over 100 µM and the TGI [14] was over 100 µM. It also gave a TGI [15] of over 100 µM, a TGI [16] of over 100 µM and a TGI [17] of over 100 µM.
In the case of CN(C)S(=O)(=O)n1cnc(CO)c1, the TGI [1] is reported as over 100 µM, the TGI [2] is reported as over 100 µM and the TGI [18] is reported as over 100 µM. The TGI [3] was over 100 µM, the TGI [4] was over 100 µM and the TGI [5] was over 100 µM. It also gave a TGI [6] of over 100 µM, a TGI [7] of over 100 µM and a TGI [20] of over 100 µM. The TGI [9] was over 100 µM, the TGI [10] was over 100 µM and the TGI [11] was over 100 µM. The TGI [13] was over 100 µM, the TGI [14] was over 100 µM and the TGI [15] was over 100 µM. It also gave a TGI [16] of over 100 µM and a TGI [17] of over 100 µM.
Compound CCOc1ccc(N=NS(=O)(=O)O)cc1 has a TGI [1] of over 100 µM, a TGI [2] of over 100 µM and a TGI [3] of over 100 µM. It also gave a TGI [19] of over 100 µM, a TGI [4] of over 100 µM and a TGI [5] of over 100 µM. The TGI [6] was over 100 µM, the TGI [7] was over 100 µM and the TGI [20] was over 100 µM. For the same compound, the TGI [8] was over 100 µM, the TGI [9] was over 100 µM and the TGI [10] was over 100 µM. For the same compound, the TGI [11] was over 100 µM, the TGI [12] was over 100 µM and the TGI [13] was over 100 µM. It also gave a TGI [14] of over 100 µM, a TGI [15] of over 100 µM and a TGI [16] of over 100 µM. For the same compound, the TGI [17] was over 100 µM.
